Reference: patent publication US12214058B2, “Imaging methods using deuterated compounds” (Genentech, Inc., priority 2014, dated 2025)
Values joined by “and” are separate entries in the source; they are usually repeats but may differ in a detail not shown here. Equal entries are not always repeated.

Columns and labels:
[1] = Microsomal stability assay, human liver microsomes; assay type: in vitro ADME; conditions: radiolabeled, 45 min incubation, n=3
Method: Microsomal stability assays The tracer [^18F][A]-d2 or [^18F][A] was dissolved in potassium phosphate (Kpi) buffer (100 mM) at concentration 500-600 μCi/mL. The non-radioactive 7 and 10 were dissolved in Kpi buffer at 10 μM concentration. The reaction vessel was charged with human or mouse liver microsome suspension (12.5 μL, 20 mg/mL) followed by Kpi buffer (388 μL, 10 mM), NADPH (50 μL, 10 mM) and incubated at 37° C. for 5-10 min. A solution of the radioactive [^18F][A]-d2 or [^18F][A] (50 μL, […]) or non-radioactive 7 or […] (50 μL, 10 μM) were added to the reaction vessel and the mixture was incubated at 37° C. […] The supernatant was analyzed by LCMS (System E).

[2] = Microsomal stability assay, rhesus liver microsomes; assay type: in vitro ADME
Method: Microsomal stability assays The tracer [^18F][A]-d2 or [^18F][A] was dissolved in potassium phosphate (Kpi) buffer (100 mM) at concentration 500-600 μCi/mL. The non-radioactive 7 and 10 were dissolved in Kpi buffer at 10 μM concentration. The reaction vessel was charged with human or mouse liver microsome suspension (12.5 μL, 20 mg/mL) followed by Kpi buffer (388 μL, 10 mM), NADPH (50 μL, 10 mM) and incubated at 37° C. for 5-10 min. A solution of the radioactive [^18F][A]-d2 or [^18F][A] (50 μL, […]) or non-radioactive 7 or 8 (50 μL, 10 μM) were added to the reaction vessel and the mixture was incubated at 37° C. Aliquots (50 μL) of the reaction mixture were taken at 5, 15 and 45 minutes post addition of the tested compound, mixed with ice-cold acetonitrile (100 μL) and centrifuged. The supernatant was analyzed by LCMS (System E). The radiolabeled tracers [^18F][A] and [^18F][A]-d2 (n=3) were incubated with human, rhesus or mouse liver microsome suspension with or without NADPH at 37° C. and the mixture was analyzed for a presence of radioactive metabolites at 5, 15 and 45 min. In the presence of mouse and rhesus liver microsomes, both the [^18F][A] and [^18F][A]-d2 metabolized rapidly to ^18F-fluoride (retention time (rt)=0.38 min), and two radioactive metabolites M2 and M1 (rt=1.2 and 1.4 min). […]

[3] = Dynamic PET in anesthetized rhesus; assay type: in vivo; conditions: 370 MBq i.v. bolus, PET over 240 min, versus [18F][A] and 18F T807
Method: [^18F][A]-d2, [^18F][A] or ^18F T807 (see Chien et al., J. Alzheimers Dis, 38:171-84 (2014)) (370 MBq (10 mCi)) was intravenous bolus injected into an anesthetized rhesus, and dynamic PET data acquired over 240 minutes. […] Data was collected from the same animal but on different days for each probe.

- fraction attributed to parent compound [1]: 91.7±0.21% and 67.1±6.3%
- stability of parent compound compared with mouse liver microsomes [2]: slightly more stable
SMILES: [2H]C([2H])([18F])CC1CCN(c2ccn3c(n2)nc2ccccc23)CC1 [[^18F][A]-d2, 1,1-dideutero-2-(1-(benzo[4,5]imidazo[1,2-a]pyrimidine-2-yl)piperidin-4-yl)-1-[^18F]fluoroethane]
- stability / skull uptake of free fluoride [3]: increased stability reflected by a reduction of skull uptake of free fluoride
